{"source": "patent US7354991B2", "about": "“Peptides for the diagnosis of schizophrenia” (Yeda Research and Development Co. Ltd, priority 2001, dated 2008)", "key": {"[1]": {"test_system": "autoantibodies in plasma samples from schizophrenic patients", "test": "Enzyme immunoassay: binding of biotin-labeled peptide on streptavidine coated tubes to plasma of schizophrenic patients", "parameters": "species or system human", "conditions": "39 schizophrenic patients; FIG. 3", "description": "(§1) • 1. Patients and control persons—Thirty-nine schizophrenic patients participated in this study. The following parameters were recorded: gender, age, duration of schizophrenia, number of hospitalizations, years of education and the psychiatric status (PANSS). Fifty plasma samples were obtained from a local blood bank. • 2. Plasma—Venous blood was drawn with heparin as […] from patients and control subjects. Plasma was obtained after centrifugation (4000 g; 15 mins. 4° C.). • 3. Peptide synthesis and biotin labeling—The peptides were synthesized on an Abimed 522 at a 10 micromol scale by Eurosequence b.v., (Nijenborgh 4: 9747 AG Groningen; The Netherlands) and labeled at the amino terminal with biotin containing a six carbon spacer. Peptide purity was routinely assessed by RP-HPLC and, when considered necessary, by laser desorption mass spectroscopy. The peptides were routinely dissolved in 1 ml water/DMF/DMSO (1:1:1; v/v/v). • 4. […] The absorbence was read at 450 nm spectrophotometrically. […]\n(§2) Therefore, an experiment was carried out with the biotin-LVVGLCK as follows: the peptide was biotin-labeled and coated onto streptavidine coated tubes as explained above. Plasma samples of 39 schizophrenic patients and 50 control non schizophrenic individuals were tested with the coated peptide and the level of binding was determined by the enzyme immunoassay described above."}, "[2]": {"test_system": "plasma samples from non schizophrenic individuals", "test": "Enzyme immunoassay: binding of biotin-labeled peptide on streptavidine coated tubes to control plasma", "parameters": "species or system human", "conditions": "50 control individuals; FIG. 3", "description": "as §1, §2"}}}
{"substance": "LVVGLCK", "values": [{"measurement": "level of binding, mean value and standard deviation, plasma of schizophrenic patients", "setting": "[1]", "value": "1.47±0.65", "unit": "O.D."}, {"measurement": "level of binding, mean value and standard deviation, plasma of non schizophrenic individuals", "setting": "[2]", "value": "0.46±0.21", "unit": "O.D."}]}
